From patent publication US8361999B2, “Methods of treating cholesterol gallstone disease with ezetimibe” (Pontificia Universidad Catolica de Chile, priority 2005, dated 2013)

Columns and labels:
C57BL/6J mice [1] = test: Biliary flow and hepatic secretion of biliary lipids; format: in vivo, mouse
Description: Surgery and sample harvest. The groups were maintained for 14 days (protocol #1) or 30 days (protocol #2) in the different experimental conditions. During the last three days of the protocols, 24 h depositions were collected from the different groups (pool) to determine the fecal excretion of neutral sterols (cholesterol) and acidic sterols (bile salts). At the end of the time established in the protocols, the mice were anesthetized (between 08:00-10:00 AM) with an intraperitoneal pentobarbital injection in doses of 4.5 mg per 100 gr body weight (Amigo et al., 2000) and subjected to surgery. Standardized surgery consists in an extended […] and visualization of abdominal organs, including liver, biliary tree and gallbladder. First, we performed a resection of the gallbladder (cholecystectomy), with the cystic duct previously ligated (Amigo et al., 2002; Amigo et al., 2000; Amigo et al., 2003b). The gallbladder is removed and visually inspected to determine the presence of gallstones. Then, the gallbladder bile is extracted to analyze the presence of cholesterol crystals in the fresh samples under the microscope with polarized light (20×). Aliquots are stored at −20° C. for subsequent chemical analysis. Afterwards, the common biliary duct is cannulated (biliary fistula) with a P-10 polyethylene cannula to collect bile during 15 minutes, determine bile flow by gravimetry (1 g bile=1 ml; bile flow is expressed as μl/min/g of mouse liver) and for posterior chemical analysis of biliary lipids and glutathione, as specified later. […] Then, the liver is removed, weighted, frozen in liquid nitrogen and stored at −80 for subsequent analyses. The plasma is separated by centrifugation at 1,500 rpm and stored at −80° C. for later analysis. The animal protocols were approved by our institution Ethics Committee and the animals were treated according to international care rules for experimental animals.
Intestinal absorption of cholesterol and bile salts. The capacity of Ezetimibe to inhibit cholesterol and bile salt absorption was indirectly determined by quantification of neutral sterols (cholesterol) and acidic sterols (bile acids) present in the feces collected on day 12, 13 and 14 of the experiment (three days). In order to determine cholesterol (neutral sterols) fecal excretion, the feces were dried at 50° C. for three days and then weighted to obtain an average of fecal excretion per day (in grams). […] 50 μl aliquots, in duplicate, are dried at room temperature, and total cholesterol is quantified according to the enzymatic method described above. The values obtained are expressed as μmoles cholesterol/day/100 g of mouse (Miettinen et al., 1965). […]

[2] = tested on: intestinal cholesterol absorption; settings: mammalian models (murine models); cited from earlier work
C57BL/6J mice [3] = test: Glutathione biliary secretion; format: in vivo, mouse; settings: lithogenic diet (FIG. 4)
Description: Surgery and sample harvest. The groups were maintained for 14 days (protocol #1) or 30 days (protocol #2) in the different experimental conditions. During the last three days of the protocols, 24 h depositions were collected from the different groups (pool) to determine the fecal excretion of neutral sterols (cholesterol) and acidic sterols (bile salts). At the end of the time established in the protocols, the mice were anesthetized (between 08:00-10:00 AM) with an intraperitoneal pentobarbital injection in doses of 4.5 mg per 100 gr body weight (Amigo et al., 2000) and subjected to surgery. Standardized surgery consists in an extended […] and visualization of abdominal organs, including liver, biliary tree and gallbladder. […] Afterwards, the common biliary duct is cannulated (biliary fistula) with a P-10 polyethylene cannula to collect bile during 15 minutes, determine bile flow by gravimetry (1 g bile=1 ml; bile flow is expressed as μl/min/g of mouse liver) and for posterior chemical analysis of biliary lipids and glutathione, as specified later. […]
Biliary gluthation. Biliary gluthation was quantified from the bile obtained by cannulation of the biliary duct for a 5 minute period with tubes containing 5 μl sulfosalicylic acid. […] The reaction mix was incubated at 37° C., measured at 412 nm, and an enzymatic kinetic curve was obtained using different […] concentrations as standard. […]

Structure (SMILES): O=C1[C@H](CC[C@H](O)c2ccc(F)cc2)[C@@H](c2ccc(O)cc2)N1c1ccc(F)cc1 [Ezetimibe, (−)-1-(4-fluorophenyl)-(3R)-[3-(4-fluorophenyl)-(.S)-hydroxypropyl]-(4S)-(4-hydroxyphenyl)-2-azetidinone]
- biliary flow larger than in the group on lithogenic diet without ezetimibe (significant) (C57BL/6J mice [1]; lithogenic diet): 50-60%
- secretion of bile salts and phospholipids vs group without ezetimibe (C57BL/6J mice [1]; lithogenic diet (FIG. 3)): increase
- secretion of biliary cholesterol vs group without ezetimibe (C57BL/6J mice [1]; lithogenic diet (FIG. 3)): did not associate to a greater secretion
- increase in biliary flow (slight, non-significant) (C57BL/6J mice [1]; low cholesterol control diet): 30-40%
- dosages that effectively inhibit intestinal cholesterol absorption [2]: 0.1-6 mg/kg body weight per day
- increase in glutathione secretion vs lithogenic diet only (significant) (C57BL/6J mice [3]): 200%
